Results taken from PubChem BioAssay (NCI).
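These data come from cells grown in 96-well plates and exposed to compound for 48 hours at five concentrations. GI50 marks 50% less growth. TGI denotes the concentration required for complete inhibition of growth.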

Tested on: MDA-MB-468 breast
Assay: NCI tumour cell line growth inhibition, 48 h

| SMILES | GI50 | TGI |
| --- | --- | --- |
| Cc1nc2ccccc2c(/C=C/c2ccc(Br)cc2)c1C(=O)/C=C/c1ccccc1 | 1.98 µM | 4.2 µM |
| CCN1C(=O)N(CC)C2C1NN=c1s/c(=C\c3ccccc3Br)c(=O)n12 (centres undefined) | 0.0352 µM | 1.15 µM |
| O=C(Oc1cccnc1)c1ccsc1Nc1ccnc(C(F)(F)F)c1 | 1.8 µM | 4.4 µM |
| N#CN1CC[C@H](C(=O)Nc2ncc(-c3ccncc3)s2)C1 | < 0.0156 µM | < 0.0282 µM |
| CC1(C)N=C(N)N=C(N)N1c1ccc(CCCCc2ccc(S(=O)(=O)F)cc2)c(Cl)c1 | 0.281 µM | 10.8 µM |
| COc1cc2c(c(OC)c1OC)-c1ccc(SC)c(=O)cc1[C@@H](NC1OC(CO)C(O)C(O)C1O)CC2 (some centres undefined) | 0.0343 µM | > 100 µM |
| COc1cc(/C=C/[N+](=O)[O-])cc(Br)c1OC | 1.59 µM | 3.28 µM |
| Cn1cc(-c2nonc2-c2cn(C)c3ccccc23)c2ccccc21 | 0.492 µM | > 32.4 µM |
| Cc1c(C2=C(c3cn(C)c4ccccc34)C(=O)NC2=O)c2ccccc2n1C | 0.921 µM | > 22.5 µM |
| OC(c1cc2cc(Cl)c(Cl)cc2c2cc(C(F)(F)F)ccc12)C1CCCCN1 (centres undefined) | 1.58 µM | 2.94 µM |
| CN1CCN(Cc2ccc(NC(=O)c3[nH]ncc3Nc3ncnc4sc5c(c34)CCCC5)cc2)CC1 | 0.476 µM | 2.3 µM |
| CCCCCn1sc(=O)n(Cc2ccc(CNC(=O)OCc3ccc4cccc(O)c4n3)cc2)c1=O | 1.71 µM | 3.56 µM |
| COc1ccc(/C=N/NC(=O)Cn2c(-c3ccc(S(C)(=O)=O)cc3)nc3cc(Cl)ccc32)cc1 | 1.51 µM | 9.14 µM |
| CN1CCC(n2cnc(-c3ccc(F)cc3)c2-c2ccnc(N)n2)CC1 | 3.32 µM | 21.1 µM |
| CC1OC(O[C@H]2/C=C/C=C/C=C/C=C/C=C/C=C/C=C/[C@H](C)[C@@H](O)[C@@H](C)[C@H](C)OC(=O)CC(O)CC(O)CCC(O)C(O)CC(O)C[C@]3(O)C[C@H](O)C(C(=O)O)C(C2)O3)C(O)[C@H](N)C1O (some centres undefined) | 14.9 µM | 32.4 µM |
| COc1ccc2c(c1)OC1=C(C(=O)OC1)C2c1cc(OC)c2c(c1)OCO2 (centres undefined) | 0.0264 µM | 0.0987 µM |

| SMILES | GI50 | TGI |
| --- | --- | --- |
| C[C@@H]1O[C@@H](O[C@H]2CC[C@@]3(C)[C@H](CCC4[C@@H]3C(O)C[C@]3(C)[C@@H](c5ccc(=O)oc5)CC[C@]43O)C2)[C@H](O)[C@H](O)[C@H]1O (some centres undefined) | 0.00594 µM | 0.0121 µM |
| CCN(CCO)CC(C)Nc1ccc([N+](=O)[O-])c2sc3ccccc3c(=O)c12 (centres undefined) | 1.68 µM | 7.29 µM |
| CCOP(=O)(OCC)OC[C@]12CC[C@@H](C)[C@H](C)C1C1=CC[C@@H]3[C@@]4(C)CCCNC(C)(C)[C@@H]4CC[C@@]3(C)[C@]1(C)CC2 (some centres undefined) | 1.39 µM | 2.91 µM |
| CC(C)=CCC/C(C)=C/CC/C(C)=C/CC/C=C(\C)CC/C=C(\C)CCC(=O)Nc1ccn(C2OC(CO)C(O)C2(F)F)c(=O)n1 (centres undefined) | 0.185 µM | 35.8 µM |
| CCN1C(=O)N(CC)C2C1NN=c1s/c(=C3\C(=O)N(CCc4ccccc4)c4ccccc43)c(=O)n12 (centres undefined) | 0.338 µM | 2.37 µM |
| O=[N+]([O-])c1cc(S(=O)(=O)Oc2ccccc2)ccc1Cl | 1.83 µM | 3.64 µM |
| CC(C)(C)c1ccc(C(=O)Nc2sc3c(c2C(N)=O)CCC(=O)C3)cc1 | 0.506 µM | 2.09 µM |
| CCCCn1c(=O)c2c(nc3n2CCCN3CCc2ccc(OCC(=O)NCCN(CC)CC)cc2)n(CCCC)c1=O | 1.73 µM | 6.86 µM |
| O=C(Nc1cccc(Nc2ncc(Br)c(NCCc3cnc[nH]3)n2)c1)N1CCCC1 | 0.637 µM | 9.09 µM |
| CC(C)(C)CN1CCn2c(nc3c(N)nccc32)S1 | 5.38 µM | 50.3 µM |
| COc1ccc(C2[C@@H](Cl)C(=O)N2c2cc(OC)c(OC)c(OC)c2)cc1Cl (some centres undefined) | 0.201 µM | 0.963 µM |
| O=c1[nH]cnc2c(C3NC(CO)C(O)C3O)c[nH]c12 (centres undefined) | > 100 µM | > 100 µM |
| Cc1cccc(NC(=O)c2sc3nc4c(cc3c2N)CN(Cc2ccccc2)CC4)c1C | 0.151 µM | 11.6 µM |
| COc1ccc(-c2oc3cc(O)cc(O)c3c(=O)c2OC)cc1O | 0.565 µM | 3.45 µM |
| COc1ccc2cc(-c3c(-c4ccncc4)nc(-c4ccc(S(C)=O)cc4)n3C)ccc2c1 (centres undefined) | 3.11 µM | > 25 µM |
| COc1ccc(OC)c(Cn2cc3c(c2)-c2oncc2CC3)c1 | 1.2 µM | 4.37 µM |
